# Earlier results in patent US20240024348A1, “METHODS AND COMPOSITIONS FOR THE TREATMENT OF GLAUCOMA AND RELATED CONDITIONS” (Ophthalmic Therapeutic Innovation, priority 2022, published 2024).
# Entries after “also recorded” stand apart in the source; their conditions may differ. Where two headings read alike, the source gives them in different places.
# B1: MMP-2: matrix metalloproteinase (protein, UniProt P08253 110-660, looked up)
# 72 kDa type IV collagenase: YNFFPRKPKWDKNQITYRIIGYTPDLDPETVDDAFARAFQVWSDVTPLRFSRIHDGEADIMINFGRWEHGDGYPFDGKDGLLAHAFAPGTGVGGDSHFDDDELWTLGEGQVVRVKYGNADGEYCKFPFLFNGKEYNSCTDTGRSDGFLWCSTTYNFEKDGKYGFCPHEALFTMGGNAEGQPCKFPFRFQGTSYDSCTTEGRTDGYRWCGTTEDYDRDKKYGFCPETAMSTVGGNSEGAPCVFPFTFLGNKYESCTSAGRSDGKMWCATTANYDDDRKWGFCPDQGYSLFLVAAHEFGHAMGLEHSQDPGALMAPIYTYTKNFRLSQDDIKGIQELYGASPDIDLGTGPTPTLGPVTPEICKQDIVFDGIAQIRGEIFFFKDRFIWRTVTPRDKPMGPLLVATFWPELPEKIDAVYEAPQEEKAVFFAGNEYWIYSASTLERGYPKPLTSLGLPPDVQRVDAAFNWSKNKKTYIFAGDKFWRYNEVKKKMDPGFPKLIADAWNAIPDNLDAVVDLQGGGHSYFFKGAYYLKLENQSLKSVKFGSIKSDWLGC
# Tests used:
# [1] = system: ischemia-reperfusion rodent model; details: cited from earlier work
# [2] = system: patients with refractory glaucoma; details: two individual patients with refractory glaucoma; cited from earlier work
# human TM cell [3] = details: human TM cell culture; cited from earlier work
# patients with POAG/OH = details: cited from earlier work; for IOP reduction: Ph2, 1.5% BID
# light damaged rat models = details: cited from earlier work
# [4] = system: Dutch-belted pigmented and normotensive rabbit eyes; details: single dose 0.6% eye drop, cited from earlier work
# NAION mice model = details: cited from earlier work
# rat = details: cited from earlier work
# patients = details: 3% QD and 6% QD with 0.005% QD Lantanoprost; cited from earlier work
# aged mice = details: 6% treatment, vs placebo treated eyes; cited from earlier work
# young and aged C57 mice = details: 7 days, cited from earlier work
# [5] = system: patients or human subjects; details: cited from earlier work; for conjunctiva hyperemia: eye drops, clinical trials
# [6] = system: POAG/OH patients with Latanoprost poor responders; details: cited from earlier work
# human TM cell [7] = details: high concentration (10 ug/mL); cited from earlier work
# patient with NTG = details: cited from earlier work
# [8] = human donor eyes; cited from earlier work
molecule,measurement,setting,value
"Brc1c(NC2=NCCN2)ccc2nccnc12 [Brimonidine, reference compound]",protection of RGC and outer layer photoreceptors,[1],lacks effects toward the outer layer photoreceptor cells
same,protection of RGC and outer layer photoreceptors,[1]; listed as brimonidine,did not protect photoreceptor loss
CCCCCCCC(=O)CC[C@@H]1[C@@H](C/C=C\CCCC(=O)OC(C)C)[C@@H](O)C[C@H]1O [Rescula],IOP profile,[2],slow mode and accumulative improvement over time
Trabodenoson,MMP-14 expression,human TM cell [3],upregulating MMP-14 expression
same,collagen IV and fibronectin,human TM cell [3],downregulation of collagen IV and fibronectin
same,IOP dose response curve (IOP reduction from baseline IOP),"patients with POAG/OH; 14-Day Phase 2 dose escalation, 0.15%, 0.3%, 0.6%, 1.5% BID",0.6% BID peaked at the top
same,IOP reduction,"patients with POAG/OH; day 14, baseline IOP>21 mmHg",6.5 mmHg
same,IOP reduction,"patients with POAG/OH; day 14, baseline IOP>25 mmHg",> 7 mmHg
same,"IOP improvement, day 28 vs Day 14","patients with POAG/OH; Phase 2, 1.5% BID eye drops, baseline IOP>21 mmHg, in 2 weeks",0.9 mmHg
same,IOP reduction POAG vs OH,"patients with POAG/OH; Phase 2, 1.5% BID, early-stage population",higher IOP reduction in patients with POAG than that with OH
same,IOP reduction from the diurnal IOP at day -1,"patients with POAG/OH; Phase 2 dose escalation, Day 14","1.5% BID is more effective than 0.15% BID, 0.3% BID, 0.6% BID at Day 14"
same,Phase 3 IOP endpoint,"patients with POAG/OH; Phase 3 clinical trials, 3 months",failed to meet the IOP endpoint at 3 months
same,IOP time course,"patients with POAG/OH; Phase 3 monotherapy, 6% QD, 3 months, vs placebo",incremental increase of the IOP reduction; also recorded: continuous IOP improvement over a course of 3 months with clinical significance compared to placebo
same,maximal IOP reduction,"patients with POAG/OH; eye drops 1.5% BID, day 28 (4 weeks), early stage POAG/OH",6-7 mmHg
same,time before reaching a steady state,"patients with POAG/OH; eye drops, early stage POAG/OH with very mild damage",more than 3 months
same,photoreceptor cell loss,light damaged rat models,rescuing photoreceptor cell loss
same,IOP reduction from the baseline,[4]; at 2 hours,25%-27%
same,time of IOP return to the baseline,[4],6 h
same,axon loss and myelination damage of optic nerve (EM),"NAION mice model; 6% eye drops BID, vs placebo control",significant reduction of the axon loss and myelination damage
same,RGC neural protection,NAION mice model; NAION mice model,potent neural protectant for RGC cell rescue
same,heart rate,rat,reduces the heart rate in rat
same,IOP efficacy of combination vs Lantanoprost alone,patients,less effective than 0.005% QD Lantanoprost alone
same,protection of RGC and outer layer photoreceptors,[1],demonstrated neural protection for both RGC inner layer of the neurons and the outer layer of neurons (photoreceptors); also recorded: more potent in rescuing and protecting the RGC and outer layer photoreceptors from apoptosis
same,TM morphology / ECM,aged mice,TM mesh pores opening up and ECM remodeling with enlarged ECM space
same,IOP reduction over time,"young and aged C57 mice; 3% QD, young C57 mice",sustained over 7 days
same,IOP lowering effect over time,"young and aged C57 mice; 6% QD, aged C57 mice",slowly diminished at day 7
same,systemic clinical safety and ocular tolerability,"[5]; 819 subjects, 2 weeks to 3 months, 0.15% BID to 6% QD, up to 18% single dose",excellent systemic clinical safety and ocular tolerability
same,conjunctiva hyperemia,[5],2.56%
same,IOP time course,"[6]; 1.5% BID 8 weeks then 3.0% QD 4 weeks, add-on to Latanoprost, 12 weeks",robust and continuous IOP improvement over the course of 12 weeks; also recorded: robust and incremental IOP improvement over a course of 12-week treatment time
same,effectiveness POAG vs OH,[6]; Lantanoprost poor responders,more effective in patients with POAG than with OH
CCNC(=O)CCC/C=C\C[C@@H]1[C@@H](/C=C/[C@@H](O)CCc2ccccc2)[C@H](O)C[C@@H]1O [Bimatoprost],MMP-9 expression,human TM cell [7],upregulates MMP-9 expression
"O=C(CCC/C=C\C[C@@H]1[C@@H](CC[C@@H](O)CCc2ccccc2)[C@H](O)C[C@@H]1O)OCCCCO[N+](=O)[O-] [Vyzulta, Latanoprost Bunod]",IOP improvement,"patient with NTG; during the first 12-week of 12-month study, Japanese population",less than 1.0 mmHg
same,IOP improvement,patient with NTG; within the first 12-week of 12-month study,~0.6 mmmHg
CC(C)OC(=O)CCC/C=C\C[C@@H]1[C@@H](CC[C@@H](O)CCc2ccccc2)[C@H](O)C[C@@H]1O [Latanoprost],MMP-9 expression,human TM cell [7],upregulates MMP-9 expression
"Cc1ccc(C(=O)OCc2ccc([C@@H](CN)C(=O)Nc3ccc4cnccc4c3)cc2)c(C)c1 [Rhopressa, reference compound]",conjunctiva hyperemia,[5],50%
B1,hydraulic conductance of Bruch's membrane,[8],increases hydraulic conductance
